Test results taken from patent US20250282812A1, “ANTIVIRAL NUCLEOSIDE ANALOGUE, AND PHARMACEUTICAL COMPOSITION AND USE THEREOF” (SHANGHAI INSTITUTE OF MATERIA MEDICA , CHINESE ACADEMY OF …, priority 2022, published 2025).
Counter-ions that a name gives are not always drawn.

Legend:
[1] = test system: respiratory syncytial virus (RSV) A long strain; experiment: In vitro activity against respiratory syncytial virus (CPE, CCK8, HEp-2 cells); format: cell-based; conditions: human respiratory syncytial virus, 120 h, MOI=0.02, 5 days; for inhibition at 5 µM: read-out: RSV (HEp-2) inhibition rate at a concentration of 5 μM
[2] = test system: influenza virus (IFV) A/California/07/2009 (H1N1) pdm09 strain; experiment: In vitro activity against influenza virus (CPE, CCK8, MDCK cells); format: cell-based; conditions: 120 h; for EC50: read-out: IFV (MDCK) EC50
in vitro = conditions: dog
[3] = Cytotoxicity in HEp-2 cells (CCK8); conditions: human
[4] = Stability test of compounds in solutions at different pH values
SFTSV-Nluc = experiment: microbe, parasite or virus in culture; format: cell-based, severe fever with thrombocytopenia syndrome virus (SFTSV); conditions: Severe fever with thrombocytopenia syndrome virus, Vero, 48 h; for inhibition at 10 µM: read-out: Inhibition rate (10 μM)

Compound | EC50 [1] [nM] | EC50 [2] [nM] | CC50 (in vitro) [nM] | CC50 at 5 days [3] [nM] | further results
CC(C)C(=O)OCn1c(=O)ccn([C@@H]2O[C@](F)(CO)[C@@H](O)[C@H]2O)c1=O [Compound X43] | 2320 | 500 | > 10000 | > 10000 | –
CCC(CC)C(=O)OCn1c(=O)ccn([C@@H]2O[C@](F)(COC(=O)C(C)C)[C@@H](O)[C@H]2O)c1=O [Compound X52] | 4850 | 570 | > 10000 | > 10000 | Content reduction (%) ([4]; buffered saline solution pH 4.0, 3 h): 0.9%; Content reduction (%) ([4]; buffered saline solution pH 4.0, 6 h): 1.4%; Content reduction (%) ([4]; buffered saline solution pH 4.0, 9 h): 1.9%; Content reduction (%) ([4]; buffered saline solution pH 4.0, 12 h): 2.2%; Content reduction (%) ([4]; buffered saline solution pH 4.0, 15 h): 2.6%; Content reduction (%) ([4]; buffered saline solution pH 4.0, 18 h): 3.0%; Content reduction (%) ([4]; buffered saline solution pH 4.0, 21 h): 3.4%; Content reduction (%) ([4]; buffered saline solution pH 4.0, 24 h): 3.6%; Content reduction (%) ([4]; buffered saline solution pH 6.8, 3 h): 1.2%; Content reduction (%) ([4]; buffered saline solution pH 6.8, 6 h): 2.3%; Content reduction (%) ([4]; buffered saline solution pH 6.8, 9 h): 3.3%; Content reduction (%) ([4]; buffered saline solution pH 6.8, 12 h): 4.3%; Content reduction (%) ([4]; buffered saline solution pH 6.8, 15 h): 5.4%; Content reduction (%) ([4]; buffered saline solution pH 6.8, 18 h): 6.6%; Content reduction (%) ([4]; buffered saline solution pH 6.8, 21 h): 7.6%; Content reduction (%) ([4]; buffered saline solution pH 6.8, 24 h): 8.7%
CCC(CC)C(=O)OC[C@@]1(F)O[C@@H](n2ccc(=O)n(COC(=O)C(C)C)c2=O)[C@H](O)[C@@H]1O [Compound X57] | – | – | > 5000 | > 5000 | inhibition at 5 µM [1]: 50.3%; inhibition at 5 µM ([2]; read-out: IFV (MDCK) inhibition rate at a concentration of 5 μM): 90.5%
CC(C)C(=O)OCn1c(=O)ccn([C@@H]2O[C@](F)(COC(=O)C3CCCCC3)[C@@H](O)[C@H]2O)c1=O [Compound X61] | 2040 | < 370 | > 10000 | > 10000 | EC50 (SFTSV-Nluc): 590 nM; inhibition at 10 µM (SFTSV-Nluc): 96.1%
O=C(OCn1c(=O)ccn([C@@H]2O[C@](F)(COC(=O)C3CCCCC3)[C@@H](O)[C@H]2O)c1=O)C1CCCCC1 [Compound X63] | 1510 | < 370 | > 10000 | > 10000 | –
CC(C)C(=O)OCn1c(=O)ccn([C@@H]2O[C@](F)(COC(=O)[C@@H](N)C(C)C)[C@@H](OC(=O)C(C)C)[C@H]2OC(=O)C(C)C)c1=O [Compound X79] | 1460 | 480 | > 10000 | > 10000 | inhibition at 10 µM (SFTSV-Nluc): < 10%
CC(C)C(=O)OCn1c(=O)ccn([C@@H]2O[C@](F)(COC(=O)C(C)C)[C@H]3OC(=O)O[C@@H]23)c1=O [Compound X113] | 1970 | < 370 | > 10000 | > 10000 | –
CC(C)=CCOc1ccn([C@@H]2O[C@](F)(COC(=O)C(C)C)[C@@H](O)[C@H]2O)c(=O)n1 [Compound X134] | 1200 | 460 | > 10000 | > 10000 | –
CC(C)C(=O)OCn1c(=O)ccn([C@@H]2O[C@](F)(CO)[C@H]3OC(=O)O[C@@H]23)c1=O [Compound X173] | 2620 | 460 | > 10000 | > 10000 | –
CC(C)C(=O)OC[C@@]1(F)O[C@@H](n2ccc(=O)n(COC(=O)CCCN(C)C)c2=O)[C@@H]2OC(=O)O[C@@H]21 [Compound X185] | – | – | – | > 5000 | inhibition at 5 µM [1]: 94.7%
O=C(/C=C/c1ccccc1)OCn1c(=O)ccn([C@@H]2O[C@](F)(COC(=O)/C=C/c3ccccc3)[C@@H](O)[C@H]2O)c1=O [Compound X198] | 2450 | – | – | > 10000 | –
CCCCCCCCCCCCCCCC(=O)OCn1c(=O)ccn([C@@H]2O[C@](F)(COC(=O)CCCCCCCCCCCCCCC)[C@@H](O)[C@H]2O)c1=O [Compound X200] | 1170 | 2290 | > 10000 | > 10000 | –
CC(C)C(=O)OCn1c(=O)ccn([C@@H]2O[C@](F)(COC(=O)C(C)C)[C@@H](OC(=O)C(C)C)[C@H]2OC(=O)C(C)C)c1=O [Compound X201] | 1510 | 560 | > 10000 | > 10000 | –
CC(C)C(=O)OC[C@@]1(F)O[C@@H](n2ccc(=O)n(COC(=O)C3CCNCC3)c2=O)[C@H](OC(=O)C(C)C)[C@@H]1OC(=O)C(C)C [Compound X204] | 1520 | 650 | > 10000 | > 10000 | –
CC(C)C(=O)OC[C@@]1(F)O[C@@H](n2ccc(=O)n(COC(=O)C3CCN(C)CC3)c2=O)[C@H](OC(=O)C(C)C)[C@@H]1OC(=O)C(C)C [Compound X205] | 2560 | < 370 | > 10000 | > 10000 | –
CC(C)C(=O)OCn1c(=O)ccn([C@@H]2O[C@](F)(COC(=O)c3cccnc3)[C@@H](O)[C@H]2O)c1=O [Compound X208] | 1090 | < 370 | > 10000 | – | –
CC(C)(C)C(=O)OC[C@@]1(F)O[C@@H](n2ccc(=O)n(COC(=O)c3cccnc3)c2=O)[C@H](O)[C@@H]1O [Compound X210] | 1880 | < 370 | > 10000 | > 10000 | –
CCC(CC)C(=O)OC[C@@]1(F)O[C@@H](n2ccc(=O)n(COC(=O)c3cccnc3)c2=O)[C@H](O)[C@@H]1O [Compound X211] | 5820 | 3340 | > 10000 | > 10000 | –
CC(C)C(=O)OC[C@@]1(F)O[C@@H](n2ccc(=O)n(COC(=O)c3cccnc3)c2=O)[C@@H]2OC(=O)O[C@@H]21 [Compound X214] | 2090 | < 370 | > 10000 | > 10000 | –
CCC(=O)OC[C@@]1(F)O[C@@H](n2ccc(=O)n(COC(=O)c3cccnc3)c2=O)[C@H](OC(=O)CC)[C@@H]1OC(=O)CC [Compound X220] | 1290 | 819 | > 10000 | > 10000 | –
CCC(CC)C(=O)OCn1c(=O)ccn([C@@H]2O[C@](F)(COC(=O)c3cccnc3)[C@@H](O)[C@H]2O)c1=O [Compound X223] | 2140 | 820 | > 10000 | > 10000 | –
O=C(OCn1c(=O)ccn([C@@H]2O[C@](F)(COC(=O)c3cccnc3)[C@@H](O)[C@H]2O)c1=O)c1cccnc1 [Compound X231] | 1160 | 510 | > 10000 | > 10000 | –
O=C(OCn1c(=O)ccn([C@@H]2O[C@](F)(COC(=O)c3cccnc3)[C@@H](OC(=O)c3cccnc3)[C@H]2OC(=O)c2cccnc2)c1=O)c1cccnc1 [Compound X232] | 1130 | 850 | > 10000 | > 10000 | –
O=C1O[C@H]2[C@H](n3ccc(=O)n(COC(=O)c4cccnc4)c3=O)O[C@](F)(COC(=O)c3cccnc3)[C@H]2O1 [Compound X233] | 1200 | 460 | > 10000 | > 10000 | –
CC(C)C(=O)O[C@H]1[C@H](n2ccc(=O)n(COC(=O)c3cccnc3)c2=O)O[C@](F)(COC(=O)c2cccnc2)[C@H]1OC(=O)C(C)C [Compound X257] | 1640 | 1380 | > 10000 | > 10000 | –
CCN(CC)CC(=O)OCn1c(=O)ccn([C@@H]2O[C@](F)(COC(=O)C(C)C)[C@@H](OC(=O)C(C)C)[C@H]2OC(=O)C(C)C)c1=O [Compound X260] | 2340 | < 370 | > 10000 | > 10000 | –
CC(C)C(=O)OC[C@@]1(F)O[C@@H](n2ccc(=O)n(COC(=O)CN(C)C)c2=O)[C@H](OC(=O)C(C)C)[C@@H]1OC(=O)C(C)C [X100 hydrochloride] | 1790 | 410 | > 10000 | > 10000 | –
